In patent US10539566B2, “Use of markers including filamin A in the diagnosis and treatment of prostate cancer” (Berg LLC, priority 2014, dated 2020):

Experiments:
Format in all cases: cell-based, human
[1] = system: LnCAP cell line and PC3 cell line; assay: Wet lab assays measuring mitochondrial ROS, ATP and caspase 3 activation; conditions: LnCAP and PC3 cells treated with ubidecarenone
PC3 cells = assay: Causal protein networks from 2D LC-MS proteomics of prostate cancer cells treated with ubidecarenone; conditions: upon treatment with ubidecarenone
Excerpt: An interrogative systems biology based discovery platform (i.e., Interrogative Platform Technology or a.k.a. Interrogative Biology™) disclosed in WO2012119129 (incorporated herein by reference), and shown schematically in FIG. 1, provides new mechanistic insights into understanding mitochondrial role in behavior of prostate cancer cells. The discovery platform involves discovery across a hierarchy of systems including in vitro human cell based models and human serum samples from prostate cancer patients and downstream data integration and mathematical modeling employing an Artificial Intelligence (AI) based informatic module. For cellular models, androgen sensitive LnCAP cell line and metastatic, androgen refractory PC3 cell line were treated with ubidecarenone (coenzyme Q10) in order to engage the mitochondrial machinery. Proteomic signatures were captured using a 2D LC-MS orbitrap technology. Total protein signatures were input to an AI based informatics module to generate causal protein networks (FIG. 2).
The keratin 8/15 association was lost upon treatment with ubidecarenone, and a direct association of keratins 7 and 15 was established (FIG. 3).

[2] = system: LnCAP, DU145, and PC-3 cells; assay: Quantitative RT-PCR of FLNA, FLNB and KRT19 expression after prostate-relevant stimuli; conditions: 24 h, DU145, PC-3 cells
Procedure: Specifically, mRNA was prepared from LnCAP, DU145, and PC-3 cells exposed to hypoxia (1% oxygen; A), TNFα (10 ng/mL; B), or R1881 (1 nM; C) for 24 h. Expression of FLNA, FLNB, and KRT19 was assessed by quantitative RT-PCR, normalized to TBP, and compared to PSA. Values represent means+SEM, N=3. * p<0.05 compared to normoxia/control.

With `COC1=C(OC)C(=O)C(C/C=C(\C)CC/C=C(\C)CC/C=C(\C)CC/C=C(\C)CC/C=C(\C)CC/C=C(\C)CC/C=C(\C)CC/C=C(\C)CC/C=C(\C)CCC=C(C)C)=C(C)C1=O` [ubidecarenone] the “intracellular levels of mitochondrial ROS, ATP and caspase 3 activation” value [1] was “confirmed changes in intracellular levels”, the “direct association of keratins 7 and 15 in causal protein maps” value (PC3 cells) was “established” and the “keratin 8/15 association in causal protein maps” value (PC3 cells) was “lost”.
With TNFα the “global regulation of FLNA, FLNB, and KRT19 expression (mRNA, normalized to TBP)” value ([2]; TNFα 10 ng/mL) was “remained unaltered”.
With `C[C@]1(O)CC[C@H]2[C@@H]3CCC4=CC(=O)CCC4=C3C=C[C@@]21C` [R1881] the “global regulation of FLNA, FLNB, and KRT19 expression (mRNA, normalized to TBP)” value ([2]; R1881 1 nM) was “remained unaltered”.
